These results are taken from patent US7094869B2, “Low molecular weight peptidomimetic growth hormone secretagogues” (Genentech, Inc., priority 1994, dated 2006).

Read-outs that look alike come from different tables or passages of the source. Non-standard residues stand in square brackets, D forms with d. Residues, ends and D or L forms follow the SMILES beside them. *: point of attachment. Tyr(3-I) = N[C@@H](Cc1ccc(O)c(I)c1)C(=O)O; dNMe2Nal = CN[C@H](Cc1ccc2ccccc2c1)C(=O)O; d2Nal = N[C@H](Cc1ccc2ccccc2c1)C(=O)O; d(hPhe) = N[C@H](CCc1ccccc1)C(=O)O; NHPhenethyl = c1ccc(CCN*)cc1; dNle = CCCC[C@@H](N)C(=O)O; Inp = O=C(O)C1CCNCC1; Ahx = NCCCCCC(=O)O; Ava = NCCCCC(=O)O; GABA = NCCCC(=O)O

The term EC50 denotes the concentration giving half of the maximal effect.

Experiment [1] concerns growth hormone secretion. Briefly: GHRP induced growth hormone secretion, intravenous administration (Rat IV). It counts as in vivo. The note with it: iv injection, serum GH 10 min after injection. The procedure: Immature weanling female Sprague Dawley rats were purchased from Charles River Labs (Portage, […].) and group housed with water and food available ad libitum. When the rats were 24-30 days old (weighing 50-90 g) they were anesthetized with pentobarbitone (4 mg in 0.5 ml, approximately 60 mg/kg) given by intraperitoneal injection. The rats were then placed briefly on a heated pad, to distend their tail veins, and given an intravenous tail vein injection of the peptides 20 minutes after receiving the anesthetic. The intravenous injection was of 0.1 ml using a 1 ml syringe. The injections contained graded doses of peptides or the vehicle (vehicle for all peptides given intravenously was a buffer of 20 mM sodium acetate, 45 g/l mannitol, pH 5.0). Ten minutes after the intravenous injection blood was taken by cardiac puncture, using a 3 ml syringe, and the rats were then sacrificed.
The blood was then clotted on ice, centrifuged, serum decanted and frozen for subsequent analysis using the rat GH ELISA described elsewhere in the application. For the rat GH ELISA the serum was diluted 1:50 or 1:250, depending on the expected serum GH concentrations achieved, and assayed in duplicate.

The target of experiment [2] is rat pituitary cells (Rattus norvegicus, UniProt O08725). The procedure:
Pituitaries from ten rats were removed, the posterior pituitary discarded and the anterior pituitary placed in Hanks' Balanced Salt Solution (HBSS: without calcium chloride, w/o magnesium chloride, w/o magnesium sulfate; Gibco) containing 20 mM HEPES (Gibco) and 100 U/ml penicillin streptomycin (PS: JRH Biosciences). Under sterile conditions, pituitaries were rinsed twice then minced into small fragments with a razor blade. […] After the incubation, fragments were triturated to yield small clumps and single cells. The cells were centrifuged 1000× g for 5 min, resuspended, counted and plated at a final cell concentration of 100,000 cells/ml. Incubation media was DME low glucose media w/NaHCO3 (Gibco) containing 20 mM hepes, 100 U/ml PS and 10% FBS (Hyclone A-111-L). Cells were plated at 0.5 ml per well in 48 well plates (Falcon) and incubated at 37° C. in 5% C02 for three days. For challenges to determine release of other pituitary hormones cells were plated at 200,000 cells per ml with 2 ml per well of a Swell plate (Corning). Challenge: A (inip)bbFK-NH2 stock (or other GHRP) concentration of 1 mM was made in DMSO and diluted with warmed media approximately 30 min prior to use. The highest concentration of DMSO in media was 0.1%. Stock solutions (1 mM) of rat GHRH, somatostatin (Sigma) and GHRP antagonist HwkWfK were made fresh in media and diluted appropriately. The media used in all challenges and washing steps was DME low glucose with 20 mM Hepes, 100 U/ml PS, 10% FBS. Media was warmed to 37° C. and gassed by placing it into the incubator prior to challenge. On day three, the media was discarded and fresh media (approximately 1 ml) added for the first of three washes. After the last wash, the plate was placed back in the incubator for a 15 min pre-incubation. Then cells were washed 2× (with warmed and gassed media) and fresh 0.5 ml media were added for the second 15 min. pre-incubation. After the second pre-incubation cells were washed 2× as above and 0.5 ml of control and test solutions were added for a final 15 min incubation. After this incubation, the media were removed for subsequent GH ELISA. GH ELISA: A two-site ELISA was used to determine rat GH concentration in the media. […] After blocking and washing, standard (rat GH reference preparation: Parlow) and challenge media is diluted 1:20 prior to GH assay were added for a 1 hr room temperature incubation. STATISTICS: The mean for each group was determined and analyzed by one-way analysis of variance with a post-hoc Student-Newman-Keuls. Significance is defined as P<0.05. The EC50 was calculated using a 4-parameter curve-fit program (Kaleidagraph). Three to four independent EC50s were used to derive the mean and SEM. RIA of pituitary hormones: LH, FSH, TSH, and Prolactin were determined with commercially available kits from Amersham, and ACTH levels were determined by a RIA kit from ICN. CALCIUM FLUX EXPERIMENT: Pituitary cells were plated on fibronectin (Collaborative Research) coated two-chambered slide wells (Nunc). After four days in monolayer culture cells were rinsed three times with HBSS (Gibco) in 1% BSA and 15 mM HEPES and then incubated for 30 min at 37° C. with 5 μM Indo-1 AM (Molecular Probes, Eugene) in HBSS also containing 1% pluronic F127 (Molecular Probes). The cells were rinsed once and fresh media added for RT incubation. […] C^++ flux was imaged with a Meridian ACAS 570 using stage scanning at 21 second intervals.

Setting [3] is: read-out: PIT Cell EC50, Table III, formula IV compounds, GH release, 15 min incubation.
Setting [4] is: read-out: PIT Cell EC50, Table IV, formula III compounds, GH release, 15 min incubation.
[5] abbreviates: read-out: PIT Cell EC50, Table V, formula II compounds, GH release, 15 min incubation.

Sequence of rat pituitary cells (O08725 whole entry, the tested form may be a part): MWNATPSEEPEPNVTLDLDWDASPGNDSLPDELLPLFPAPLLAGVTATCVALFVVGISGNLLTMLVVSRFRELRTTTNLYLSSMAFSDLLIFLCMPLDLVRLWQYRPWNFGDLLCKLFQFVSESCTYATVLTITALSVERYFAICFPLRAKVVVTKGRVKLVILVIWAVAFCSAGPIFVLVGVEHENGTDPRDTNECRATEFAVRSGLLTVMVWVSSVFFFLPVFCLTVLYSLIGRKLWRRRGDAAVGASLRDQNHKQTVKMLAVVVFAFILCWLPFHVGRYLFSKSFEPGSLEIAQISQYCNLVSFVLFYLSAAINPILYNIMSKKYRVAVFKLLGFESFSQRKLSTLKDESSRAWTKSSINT

`NC(=O)CCCNC(=O)[C@@H](Cc1ccc2ccccc2c1)NC(=O)[C@@H](Cc1ccc2ccccc2c1)NC(=O)C1CCNCC1` [(inip) b b ab amide] (H-[Inp][d2Nal][d2Nal][GABA]-NH2; N-terminus assumed): in experiment [1] (Table IV), the “RAT IV ED50” value was found to be 10 µg.
Turning to `CN(C)C(=O)C(Cc1ccccc1)NC(=O)[C@@H](Cc1ccc2ccccc2c1)NC(=O)[C@@H](Cc1ccc2ccccc2c1)NC(=O)C1CCNCC1` (single isomer, unassigned) [(inip) b b F dam], in experiment [1] (Table III), the “RAT IV ED50” value is 10 µg.
Consider `NCCCCCC(=O)N[C@H](Cc1ccc2ccccc2c1)C(=O)N[C@H](Cc1ccc2ccccc2c1)C(=O)N[C@@H](Cc1ccccc1)C(=O)N[C@@H](CCCCN)C(N)=O` [(ahx) b b F K amide] (H-[Ahx][d2Nal][d2Nal]FK-NH2), for which the “RAT IV ED50” value in experiment [1] (Table III) came to 250 µg.
For `NCCCC[C@H](NC(=O)[C@H](Cc1ccccc1)NC(=O)[C@@H](Cc1c[nH]c2ccccc12)NC(=O)[C@@H](Cc1ccc2ccccc2c1)NC(=O)C1CCNCC1)C(N)=O` [(inip) b w F K amide] (H-[Inp][d2Nal][dW]FK-NH2), in experiment [1] (Table III), the “RAT IV ED50” value stood at 0.070 µg.
In the case of `NCCCC[C@H](NC(=O)[C@H](Cc1ccc(O)cc1)NC(=O)[C@@H](Cc1ccc2ccccc2c1)NC(=O)[C@@H](Cc1ccc2ccccc2c1)NC(=O)C1CCNCC1)C(N)=O` [(inip) b b Y K amide] (H-[Inp][d2Nal][d2Nal]YK-NH2), in experiment [2] (setting [3]), the EC50 is 0.0002 µM.
Consider `O=C(N[C@H](Cc1ccc2ccccc2c1)C(=O)N[C@H](Cc1ccc2ccccc2c1)C(=O)N[C@@H](Cc1ccc(O)c(I)c1)C(=O)O)C1CCNCC1` [(inip) b b Y(I) acid, (inip)-DβNal-DβNal-(3-I-Tyr)] (H-[Inp][d2Nal][d2Nal][Tyr(3-I)]-OH), for which, in experiment [2] (setting [4]), the 50% effective concentration (EC50) was 0.0001 µM.
Turning to `C[C@@H](NC(=O)CCCCN)C(=O)N[C@H](Cc1ccc2ccccc2c1)C(=O)N[C@@H](Cc1ccccc1)C(=O)N[C@@H](CCCCN)C(N)=O` [(Ava) a b F K amide] (H-[Ava][dA][d2Nal]FK-NH2), the EC50 in experiment [2] (setting [3]) was more than 0.3 µM.
On to `O=C(N[C@H](Cc1ccc2ccccc2c1)C(=O)N[C@H](Cc1ccc2ccccc2c1)C(=O)NCCc1ccccc1)C1CCNCC1` [(inip) b b fem, (inip)-DβNal-DβNal-(N-2-phenylethyl) amide] (H-[Inp]-[d2Nal]-[d2Nal]-NHPhenethyl), for which the EC50 in experiment [2] (setting [4]) was 0.00204 µM.
On the same count and under the same terms, under `NC(=O)[C@H](Cc1ccccc1)NC(=O)[C@@H](Cc1ccc2ccccc2c1)NC(=O)[C@@H](CCc1ccccc1)NC(=O)C1CCNCC1` [(inip) hf b F amide] (H-[Inp][d(hPhe)][d2Nal]F-NH2) stands 0.027 µM.
Turning to `NCCCCC(=O)N[C@H](Cc1ccc2ccccc2c1)C(=O)N[C@@H](CO)Cc1ccc2ccccc2c1` [(Ava) b bol], the EC50 in experiment [2] (setting [5]) is 0.19 µM.
As to `C[C@H](NC(=O)[C@@H](Cc1ccc2ccccc2c1)NC(=O)[C@@H](Cc1ccc2ccccc2c1)NC(=O)CCCCN)C(=O)N[C@@H](CCCCN)C(N)=O` [(Ava) b b A K amide] (H-[Ava][d2Nal][d2Nal]AK-NH2), the EC50 in experiment [2] (setting [3]) is more than 0.15 µM.
As for `NC(=O)[C@@H](Cc1ccc2ccccc2c1)NC(=O)[C@@H](Cc1ccc2ccccc2c1)NC(=O)C1CCNCC1` [(inip) b b amide] (H-[Inp]-[d2Nal]-[d2Nal]-NH2), the EC50 in experiment [2] (setting [5]) amounted to 0.0176 µM.
For the molecule `NC(=O)[C@H](Cc1ccccc1)NC(=O)[C@@H](CCc1ccccc1)NC(=O)[C@@H](CCc1ccccc1)NC(=O)C1CCNCC1` [(inip) hf hf F amide] (H-[Inp][d(hPhe)][d(hPhe)]F-NH2), the EC50 in experiment [2] (setting [4]) is more than 1 µM.
As for `NCCCCCNC(=O)[C@@H](Cc1ccc2ccccc2c1)NC(=O)[C@@H](Cc1ccc2ccccc2c1)NC(=O)C1CCNCC1` [(inip) b b pam], the EC50 in experiment [2] (setting [4]) worked out at 0.043 µM.
For `CC(=O)NC[C@@H](Cc1ccc2ccccc2c1)N(C)C(=O)[C@@H](Cc1ccc2ccccc2c1)NC(=O)C1CCNCC1` [(inip) b mbm Ac], the EC50 in experiment [2] (setting [5]) was determined as 0.09 µM.
In turn, `NCCCC[C@H](NC(=O)[C@H](Cc1ccccc1)NC(=O)[C@@H](Cc1c[nH]c2ccccc12)NC(=O)[C@@H](Cc1c[nH]c2ccccc12)NC(=O)[C@@H](N)Cc1ccc(O)cc1)C(N)=O` [Y w w F K amide] (H-Y[dW][dW]FK-NH2) displayed an EC50 in experiment [2] of 1 µM.
In the case of `NC(=O)[C@H](Cc1ccccc1)NC(=O)[C@@H](Cc1ccccc1)NC(=O)[C@@H](Cc1ccc2ccccc2c1)NC(=O)C1CCNCC1` [(inip) b f F amide] (H-[Inp][d2Nal][dF]F-NH2), the EC50 in experiment [2] (setting [4]) was found to be 0.079 µM.
With `NC1CCN(C(=O)[C@@H](Cc2ccc3ccccc3c2)NC(=O)[C@@H](Cc2ccc3ccccc3c2)NC(=O)C2CCNCC2)CC1` [(inip) b b apc], the EC50 in experiment [2] (setting [4]) was 0.039 µM.
`CN(C)C(=O)[C@H](Cc1ccccc1)NC(=O)[C@@H](Cc1ccc2ccccc2c1)NC(=O)[C@@H](Cc1ccc2ccccc2c1)N(C)C(=O)C1CCNCC1` [(inip) nmb b F dam] (H-[Inp][dNMe2Nal][d2Nal]F-NMe2): in experiment [2] (setting [3]), the EC50 came to 0.006 µM.
On to `C[C@H](N)C(=O)N[C@@H](Cc1c[nH]cn1)C(=O)N[C@H](Cc1ccc2ccccc2c1)C(=O)N[C@@H](C)C(=O)N[C@@H](Cc1c[nH]c2ccccc12)C(=O)N[C@H](Cc1ccccc1)C(=O)N[C@@H](CCCCN)C(N)=O` [GHRP 1, Ala-His-D βNal-Ala-Trp-D Phe-Lys-NH2, reference compound] (H-AH[d2Nal]AW[dF]K-NH2), for which, in experiment [2] (read-out: “Pit” Cell EC50, Table II, prior art compounds, GH release, 15 min incubation), the EC50 came out at 0.0014 µM.
For the molecule `C[C@@H](NC(=O)[C@@H](Cc1ccc2ccccc2c1)NC(=O)CCCCN)C(=O)N[C@@H](Cc1ccccc1)C(=O)N[C@@H](CCCCN)C(N)=O` [(Ava) b a F K amide] (H-[Ava][d2Nal][dA]FK-NH2), the EC50 in experiment [2] (setting [3]) is more than 0.3 µM.
The same measure, in the same setting: the value for `NCCCC[C@H](NC(=O)[C@H](Cc1ccccc1)NC(=O)[C@@H](Cc1ccc2ccccc2c1)NC(=O)[C@@H](Cc1ccc2ccccc2c1)NC(=O)C1CCNCC1)C(=O)N[C@@H](Cc1ccc(O)c(I)c1)C(N)=O` [(inip) b b F K Y(I) amide] (H-[Inp][d2Nal][d2Nal]FK[Tyr(3-I)]-NH2) was 0.00069 µM.
Consider `CCCC[C@@H](NC(=O)[C@@H](Cc1ccc2ccccc2c1)NC(=O)C1CCNCC1)C(=O)N[C@@H](Cc1ccccc1)C(N)=O` [(inip) b nl F amide] (H-[Inp][d2Nal][dNle]F-NH2), for which, in experiment [2] (setting [4]), the EC50 was 0.072 µM.
With `O=C(N[C@@H](Cc1ccc2ccccc2c1)C(=O)N[C@@H](Cc1ccc2ccccc2c1)C(=O)NC1CCNCC1)C1CCNCC1` [(inip) B B api], the EC50 in experiment [2] (read-out: PIT Cell EC50, Table VI, retroinverso compounds of formula V, GH release, 15 min incubation) amounted to 0.096 µM.
As for `NCCCNC(=O)[C@H](Cc1ccc2ccccc2c1)NC(=O)[C@H](Cc1ccc2ccccc2c1)NC(=O)[C@@H](Cc1ccc2ccccc2c1)NC(=O)CCCN` [(Ab) b B B ram], the EC50 in experiment [2] (read-out: mean EC50, mean ± SE of independent EC50s) turned out to be 0.002 µM.
For the molecule `CNC(=O)[C@@H](Cc1ccccc1)NC(=O)[C@@H](Cc1ccc2ccccc2c1)NC(=O)[C@@H](Cc1ccc2ccccc2c1)NC(=O)C1CCNCC1` [(inip) b b f mam] (H-[Inp][d2Nal][d2Nal][dF]-NHMe), in experiment [2] (setting [3]), the EC50 is 0.007 µM.
